This note sets out measurements from patent publication US8852559B2 (Colgate-Palmolive Company, priority 2009, dated 2014).

Data set [1] is classed as physicochemical. The source says: The poor solubility of Compound A presents some formulation challenges. Its solubility in water is less than 100 ppm, and its solubility in flavor oils (often used to solubilize actives) is less than 0.5%. We have discovered that co-polymers of polyethylene glycol and polypropylene glycol are able to solubilize Compound 1. Fluraflo L4370 (BASF) is able to solubilize 1% Compound 1 (% w/w). It is necessary to stir the solution over low heat to fully solubilize the active. The resulting solution is cloudy, reflecting the nature of the Fluraflo L4370 itself. The solution of 1% Compound 1 in Fluraflo L4370 is diluted 1:1 with 1.5% SLS in water to produce a clear solution, composed of 0.5% AN0128, 0.75% SLS, 50% Fluraflo L4370 in water Similar results are achieved using Fluracare L1220.
We also discovered that Tri-block Co-polymer Surfactant F127 is able to further enhance solubilization of Compound 1. In experimental liquid dentifrice formulas (Table 3), Compound 1 is not completely soluble over time, as evidenced by precipitation and crystallization over time. After the addition of 5% F127, experimental liquid dentifrice formulas (Table 4) remain clear. Therefore, Tri-block Co-polymer Surfactant F127 is able to further solubilize Compound 1 and is suitable for use in formulations.
We further discovered that low molecular weight polyethylene glycol 300 (PEG 300)(Dow Chemical Company) solubilizes 10% Compound 1 (% w/w). It is necessary to stir the solution over low heat to fully solubilize the active. The resulting solution is clear with a slight yellow tint due to the color of Compound 1. […] Therefore, we conclude that solvents containing oligomers and/or polymers of ethylene glycol are capable of solubilizing Compound 1 and are suitable for formulation.
The properties of Compound 1 in conjunction with other excipients are further evaluated by diluting a solution of Compound 1 in PEG 300 into other solvents such as propylene glycol and glycerin at varying ratios. A solution containing 1% Compound 1 in 19% PEG 300 and 80% propylene glycol is clear. […]

Data set [2] deals with biofilm. The experiment in a line: Biofilm disruption assay. Format: cell-based. Here is the method:
The solution of 0.5% AN0128.0.75% SLS. 50% Fluraflo L4370 in water is then tested in a biofilm disruption assay.
A solution of 2% Compound 1 in PEG 300 is diluted 1:1 with 2% SLS in water to produce a solution composed of 1% Compound 1, 1% SLS, 50% PEG 300 in water which is then tested in a biofilm disruption assay.
The properties of Compound 1 in conjunction with other excipients are further evaluated by diluting a solution of Compound 1 in PEG 300 into other solvents such as propylene glycol and glycerin at varying ratios. A solution containing 1% Compound 1 in 19% PEG 300 and 80% propylene glycol is clear. This solution is then diluted 1:1 with 1% SLS in water to produce a solution composed of 0.5% Compound 1, 0.5% SLS, 9.5% PEG 300 and 40% propylene glycol in water which is then tested in the biofilm disruption assay. The percent reduction achieved versus the negative control is 80%. […] Similar results are achieved with PEG and glycerin.

Data set [3] can be described thus: Decomposition of Compound 1 in buffered vs unbuffered pH 7.2 formulation. The note with it: phosphate buffered vs unbuffered formulation, pH 7.2, over 14 days. Format: physicochemical. The procedure:
Two pH 7.2 formulations of Compound 1 are prepared, one with phosphate buffer, one without, and the decomposition of Compound 1 is measured over 14 days. While measurable decomposition is seen in both formulations, the slope of the rate of decomposition Compound 1 in the buffered formulation is decreased by 3.3 fold compared to that of the unbuffered formulation.

Data set [4] in a line: Stability of Compound 1 formulations with and without antioxidants. Format: physicochemical. From the text: The stability of three formulations of Compound 1 are compared, the formulations being identical except that one is without any antioxidants, one contains α-tocopherol, and the third contains sodium ascorbylphosphate.

On to `Cc1ccc([B-]2(c3ccc(C)c(Cl)c3)OC(=O)c3ncccc3[OH+]2)cc1Cl` [Compound 1], for which the “amount solubilized in Fluraflo L4370” value in data set [1] stood at 1 % w/w. Further, in data set [1], the “amount solubilized in polyethylene glycol 300” value stood at 10 % w/w. The “solubility in various oils” value in data set [1] is “less than 0.5%”. Further, the “percent reduction versus the negative control” value in data set [2] (0.5% AN0128, 0.75% SLS, 50% Fluraflo L4370 in water) is given as 65%; in data set [2] (0.5% Compound 1, 0.5% SLS, 9.5% PEG 300 and 40% propylene glycol in water) it was 80%; in data set [2] (1% Compound 1, 1% SLS, 50% PEG 300 in water), 76%. Further, the “decrease of slope of the rate of decomposition of Compound 1” value in data set [3] turned out to be 3.3 fold. Moreover, the decomposition in formulation result in data set [4] (formulation containing sodium ascorbylphosphate vs without any antioxidants) was “significantly reduced”; in data set [4] (formulation containing α-tocopherol vs sodium ascorbylphosphate formulation) it was “even less”.
